According to EP0234708A1, “Tetrahydrocarbazole 1-alkanoic acids” (MERCK FROSST CANADA INC., priority 1986, dated 1987):

What was measured:
Human Platelets = molecular target: T1, Human Platelets (Homo sapiens, UniProt P21731); test: Inhibition of induced threshold aggregation of human platelets (aggregating agent U44069, platelet rich plasma); format: cell-based; conditions: for IC50: human platelet rich plasma, threshold aggregation induced by U44069, read-out: Inhibition of platelet aggregation (IC50 in µg/ml) (converted)
T1 sequence (P21731 1-343): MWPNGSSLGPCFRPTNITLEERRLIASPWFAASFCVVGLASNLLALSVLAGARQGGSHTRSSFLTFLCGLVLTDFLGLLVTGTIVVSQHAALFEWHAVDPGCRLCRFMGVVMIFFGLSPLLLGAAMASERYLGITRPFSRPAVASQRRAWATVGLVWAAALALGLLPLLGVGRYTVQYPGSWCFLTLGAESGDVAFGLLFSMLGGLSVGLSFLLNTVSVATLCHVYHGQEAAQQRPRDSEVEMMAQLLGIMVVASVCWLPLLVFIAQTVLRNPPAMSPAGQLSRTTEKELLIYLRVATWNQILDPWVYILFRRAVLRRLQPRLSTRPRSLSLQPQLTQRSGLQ
Protocol: Inhibition of Induced Threshold Aggregation of Human
Human platelet rich plasma (PRP) is prepared from venous blood of male volunteers who have taken no medication for ten days prior to test. […] The supernatant (PRP) is transferred into plastic tubes. Platelet poor plasma (PPP) is obtained by centrifuging the residual blood cells at 4000 g for ten minutes. PRP is left to stand at least one half hour prior to testing.
Platelet Aggregation is measured using a Payton Aggregometer and Recorder. […] Drug vehicle (control), or a drug concentration is then added in a volume of 0.5 microliter. After one minute, the aggregating agent (U44069, 9,11-dideoxy-9α,11α-epoxymethano PGF 2a ) is added to the cuvette in a volume of 25 microliters. Recording is continued until the maximal response is obtained.
The threshold (approximately 20 - 30% of maximum) aggregation concentration of the agonist to be used is first determined in the presence of the drug vehicle (control). […] All drugs are dissolved in dimethylsulfoxide.
The height of the aggregation response (measured in divisions of the recorder paper, 1 division × 2.5 mm) in the presence of the drug is recorded, and calculated as percent inhibition of the mean height of the control threshold responses.

[1] = tested on: Guinea Pig Tracheal Chain; test: Estimation of pA2 values in guinea pig tracheal chain (contractile agonist U-44069); set-up: species or system guinea pigs; conditions: for pA2 / Kb: guinea pig tracheal chain, antagonism of U-44069 contraction, logarithmic scale; for Kb: Cavia porcellus; for prostanoid antagonist activity (statement in words): Table 4 data (platelet aggregation and pA2)
Text: Estimation of pA2 Values in Guinea Pig Tracheal Chain
Male albino Hartley strain guinea pigs (300-350 gm) were sacrificed by a blow to the head and exsanguinated. The trachea was removed, freed of extraneous tissue and sectioned into rings of 1-2 mm thickness. Five rings were tied together in series, ensuring that the tracheal muscle lay in the same vertical plane, and the cartilage of each ring then separated at a point directly opposite the muscle. The chains were suspended under 1 gm resting tension in modified Krebs solution (NaCl, 6.87; NaHCO3, 2.1; dextrose, 2.1; KC1, 0.32; CaCl2, 0.28; MgSO4, 7H 0, 0.11; KH2PO4, 0.16; gm/L: equilibrated with 5% C02 in O2 for 1 hour) containing indomethacin (1.4 x 10^-5M) to suppress endogenous protaglandin synthesis, Organ bath temperature was maintained at 37°C and 5% C02 in 02 diffused continously. Isometric tension changes were recorded from a Gould-Statham (UTC 2) force displacement transducer connected to a Beckman Type R Dynograph. For assay purposes initial maximal contractions were elicited with a high concentration of the contractile agonist [U-44069, 9.11-dideoxy-9α,11α-epoxymethano PGF2α] and the tissue subsequently washed at intervals until tension returned to baseline. Agonist dose response curves were obtained using a cumulative-dose schedule (4-8 doses) and the preparations then washed at regular intervals until baseline tension was recorded. After an appropriate interval (1-1.5 hrs) agonist dose response curves were repeated in the presence of antagonist drug concentrations. […] EC50 values were obtained by regression analysis and used to calculate 'apparent' and Schild Plot pA2 values by the method of Tallarida and Murray 1981.

SMILES	IC50 (Human Platelets) [nM]	pA2 [1]	Kb [1] [nM]	prostanoid antagonist activity (statement in words) [1]	times less potent as an inhibitor of platelet aggregation (Human Platelets; compared with compound 2)	pA2 is a factor less than that of compound 2 ([1]; compared with compound 2, printed as antilog of 1.6)
O=C(O)CC1CCCc2c1n(Cc1ccc(Cl)cc1)c1ccc(F)cc21 (single isomer, unassigned; (-)) [Compound 3, (-)9-p-chlorobenzyl-6-fluoro-1,2,3,4-tetrahydro-carbazol-1-yl-acetic acid]	134	8.0	–	–	–	–
COc1ccc2c(c1)c1c(n2Cc2ccc(Cl)cc2)CC(C(=O)O)CC1 (stereo not drawn) [B]	> 81100	–	> 1000	no significant activity	–	–
COc1ccc2c(c1)c1cccc(CC(=O)O)c1n2Cc1ccc(Cl)cc1 [C]	> 79000	–	263	does not possess any significant activity	–	–
O=C(O)CC1CCCc2c1n(Cc1ccc(Cl)cc1)c1ccc(F)cc21 (stereo not drawn) [Compound 1, 9-p-chlorobenzyl-6-fluoro-1,2,3,4-tetrahydrocarbazol-1-yl-acetic acid]	80.7	8.6	–	–	–	–
COc1ccc2c(c1)c1c(n2Cc2ccc(Cl)cc2)C(CC(=O)O)CCC1 (stereo not drawn) [Compound 2, 9-p-chlorobenzyl-6-methoxy-1,2,3,4-tetrahydrocarbazol-1-yl-acetic acid]	782	–	3.98	–	–	–
COc1ccc(Cn2c3c(c4cc(F)ccc42)CCCC3CC(=O)O)cc1 (stereo not drawn) [Compound 6, 9-p-methoxybenzyl-6-fluoro-1,2,3,4-tetrahydrocarbazol-1-yl-acetic acid]	408	–	2	–	–	–
O=C(O)CC1CCCc2c1n(Cc1ccc(Cl)c(Cl)c1)c1ccc(F)cc21 (stereo not drawn) [Compound 7, 9-(3,4-dichloro)benzyl-6-fluoro-1,2,3,4-tetrahydro-carbazol-1-yl-acetic acid]	222	–	5.01	–	–	–
CC(c1ccccc1)n1c2c(c3cc(F)ccc31)CCCC2CC(=O)O (stereo not drawn) [Compound 8, 9-[1-(1-phenyl)ethyl]-6-fluoro-1,2,3,4-tetrahydro-carbazol-1-yl-acetic acid]	256	–	> 1000	–	–	–
O=C(O)CC1CCCc2c1n(Cc1ccc(Cl)cc1)c1ccccc21 (stereo not drawn) [Compound 9, 9-p-chlorobenzyl-1,2,3,4-tetrahydrocarbazol-1-yl-acetic acid]	141	–	1.26	–	–	–
O=C(O)CC1CCCc2c1n(Cc1ccc(Cl)cc1)c1ccc(Cl)cc21 (stereo not drawn) [Compound 10, 9-p-chlcrobenzyl-6-chloro-1,2,3,4-tetrahydrocarbazol-1-yl-acetic acid]	258	–	10	–	–	–
Cc1cccc2c3c(n(Cc4ccc(Cl)cc4)c12)C(CC(=O)O)CCC3 (stereo not drawn) [Compound 11, 9-p-chlorobenzyl-8-methyl-l,2,3,4-tetrahydrocarbazol-1-yl-acetic acid]	272	–	0.316	–	–	–
O=C(O)CC1CCCc2c1n(Cc1ccc(Cl)cc1)c1ccc(Br)cc21 (stereo not drawn) [Compound 12, 6-bromo-9-p-chlorobenzyl-l,2,3,4-tetrahydrocarbazol-l-yl-acetic acid]	208	–	12.6	–	–	–
Cc1ccc2c(c1)c1c(n2Cc2ccc(Cl)cc2)C(CC(=O)O)CCC1 (stereo not drawn) [Compound 13, 9-p-chlorobenzyl-6-methyl-1,2,3,4-tetrahydrocarbazol-1-yl-acetic acid]	217	–	25.1	–	–	–
O=C(O)CC1CCCc2c1n(Cc1ccc(Cl)cc1)c1c(F)cccc21 (stereo not drawn) [Compound 14, 9-p-chlorobenzyl-8 fluoro-1,2,3,4-tetrahydrocarbazol-1-yl-acetic acid]	215	–	0.398	–	–	–
O=C(O)CC1CCCc2c1n(Cc1ccc(Cl)cc1)c1cccc(F)c21 (stereo not drawn) [Compound 16, 9-p-chlorobenzyl-5-fluoro-1,2,3,4-tetrahydrocarbazol-1-yl-acetic acid]	457	–	1.26	–	–	–
O=C(O)CC1CCCc2c1n(Cc1ccc(Cl)cc1)c1c(Cl)cc(Cl)cc21 (stereo not drawn) [Compound 19, 9-p-chlorobenzyl-6,8-dichloro-1,2,3,4-tetrahydro-carbazol-1-yl-acetic acid]	166	–	63.1	–	–	–
CC(C(=O)O)C1CCCc2c1n(Cc1ccc(Cl)cc1)c1ccc(F)cc21 (stereo not drawn) [Compound 20, 2-[9-p-chlorobenzyl-6-fluoro-1,2,3,4-tetrahydro-carbazol-1-yl-]propanoic acid]	803	–	158	–	–	–
COc1ccc2c(c1)c1c(n2Cc2ccc(Cl)cc2)CC(CC(=O)O)CC1 (stereo not drawn) [Compound A, reference compound]	9120	–	158	–	~12	14
O=C(O)CC1CCCc2c1[nH]c1ccc(F)cc21 (stereo not drawn) [Compound F, 6-fluoro-1,2,3,4-tetrahydrocarbazol-1-yl-acetic acid]	13800	–	> 1000	severe loss of activity	–	–
O=C(O)CC1CCCc2c1n(CCc1ccc(Cl)cc1)c1ccc(F)cc21 (stereo not drawn) [Compound H, 9-[1-(2-p-chlorophenyl)ethyl]-6-fluoro-1,2,3,4-tetra-hydrocarbazol-1-yl-acetic acid]	35200	–	158	serious loss of activity	–	–
COc1ccc2c(c1)c1c(n2Cc2ccc(Cl)cc2)CCCC1C(=O)O (stereo not drawn) [D]	–	–	> 1000	severe loss of activity	–	–
COc1ccc2c(c1)c1c(n2Cc2ccc(Cl)cc2)C(C(=O)O)CCC1 (stereo not drawn) [E]	11400	–	219	severe loss of activity	–	–
CC(C)n1c2c(c3cc(F)ccc31)CCCC2CC(=O)O (stereo not drawn) [G, 6-fluoro-9-isopropyl-1,2,3,4-tetrahydrocarbazol-1-yl-acetic acid]	47000	–	> 1000	almost completely lost activity	–	–
